Experimental data: US5665390A, “Stabilized tablet formulation” (SmithKline Beecham Corporation, priority 1993, dated 1997)

Assays:
[1] = stability of compound in blends/granulations versus compressed tablets; degradation products analyzed by LC/MS; type: physicochemical; details: compressed into direct compression or wet granulation tablets with excipients
Description: Although stable when blended or granulated with one or more commonly used pharmaceutical excipients such as, for example, lactose, tribasic calcium phosphate, silicon dioxide, corn starch, sodium starch glycolate, hydroxypropyl cellulose, hydroxypropyl methylcellulose, gelatin, magnesium stearate, microcrystalline cellulose, mannitol, and sorbitol, substituted 3,5-diene steroidal compounds were unexpectedly found to undergo a significant increase in the rate of formation of degradation products when compressed into tablets with such pharmaceutical excipients. This increase in degradation products occurs whether the substituted 3,5-diene steroidal compound and said excipients are formulated in direct compression tablets or in wet granulation tablets.

steroid 5-α-reductase = details: cited from earlier work
[2] = Accelerated Stability Screening Method (tablets stored at 85° C., degradation by HPLC); details: additive to tablets of substituted 3,5-diene steroidal compounds
Description: The stability of N-t-butyl-androst-3,5-diene-17β-carboxamide-3-carboxylic acid (compound A) in various tablet formulations was determined by HPLC analysis.
In Experiment 1 Compound A, microcrystalline cellulose, lactose, corn starch and sodium starch glycolate shown in Table I below, were mixed in the proportions shown. […] The tablets thus prepared were placed in stability chamber at 85° and the results of the stability test were recorded in Table 2 below.
The tablets thus prepared were placed in stability chamber at 85° C. and the results of the stability test were recorded in Table 3 below.
The tablets thus prepared were placed in stability chamber at 85° C. and the results of the stability test were recorded in Table 5 below.
In Experiment 4 Standard Granulation and BHT (for Batch 8) shown in Table 6 below, or stearic acid and BHT (for Batch 9) shown in Table 7 below, were mixed and granulated in the proportions shown and compressed into tablets of about 350 mg total tablet weight. The tablets thus prepared were placed in stability chamber at 85° C. and the results of the stability test were recorded in Tables 6 and 7 below.
The tablets thus prepared were placed in stability chamber at 85° C. and the results of the stability test were recorded in Table 8 below. […]

SMILES | formation of degradation products when compressed into tablets [1] | inhibition of steroid 5-α-reductase (steroid 5-α-reductase) | stabilizing effect on tablets (percentage of degradation products) [2]
CC(C)(C)NC(=O)[C@H]1CC[C@H]2[C@@H]3CC=C4C=C(C(=O)O)CC[C@]4(C)[C@H]3CC[C@]12C [Compound A, N-t-butyl-androst-3,5-diene-17β-carboxamide-3-carboxylic acid] | oxidative additions (the 7 keto oxidation product and others) which only occurred when blends or granulations of Compound A were compressed into tablets | useful in inhibiting steroid 5αreductase | 
CCCCCCCCCCCCCCCCCC(=O)O [magnesium stearate] |  |  | do not exhibit such activity
